Measured values taken from US20080318925A1 (ASTRAZENECA AB, priority 2007, published 2008).

molecular target: T1, GABAA2 receptors (α2, β3, γ3 receptor subunits transfected into Sf9 cells) (Homo sapiens, UniProt P47869+Q99928); experiment: GABAA2 binding method ([3H]-flunitrazepam displacement); details: [3H]-flunitrazepam ~2 nM, Sf9 membranes, 1 hr at 4° C.
T1 construct: host or cells: Sf9 cells (membranes)
T1 sequence (P47869 29-451): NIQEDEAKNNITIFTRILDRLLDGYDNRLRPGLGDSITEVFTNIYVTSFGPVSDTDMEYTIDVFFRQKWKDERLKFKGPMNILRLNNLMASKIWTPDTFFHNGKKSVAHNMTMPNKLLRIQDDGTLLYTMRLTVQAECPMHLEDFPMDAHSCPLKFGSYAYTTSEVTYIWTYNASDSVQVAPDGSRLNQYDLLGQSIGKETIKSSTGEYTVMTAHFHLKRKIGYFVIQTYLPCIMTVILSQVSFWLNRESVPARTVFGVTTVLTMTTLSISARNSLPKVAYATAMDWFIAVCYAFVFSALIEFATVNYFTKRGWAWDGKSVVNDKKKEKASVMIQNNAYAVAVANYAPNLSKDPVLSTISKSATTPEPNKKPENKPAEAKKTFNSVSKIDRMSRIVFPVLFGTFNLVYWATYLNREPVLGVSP
T1 sequence (P28472 26-473 partner): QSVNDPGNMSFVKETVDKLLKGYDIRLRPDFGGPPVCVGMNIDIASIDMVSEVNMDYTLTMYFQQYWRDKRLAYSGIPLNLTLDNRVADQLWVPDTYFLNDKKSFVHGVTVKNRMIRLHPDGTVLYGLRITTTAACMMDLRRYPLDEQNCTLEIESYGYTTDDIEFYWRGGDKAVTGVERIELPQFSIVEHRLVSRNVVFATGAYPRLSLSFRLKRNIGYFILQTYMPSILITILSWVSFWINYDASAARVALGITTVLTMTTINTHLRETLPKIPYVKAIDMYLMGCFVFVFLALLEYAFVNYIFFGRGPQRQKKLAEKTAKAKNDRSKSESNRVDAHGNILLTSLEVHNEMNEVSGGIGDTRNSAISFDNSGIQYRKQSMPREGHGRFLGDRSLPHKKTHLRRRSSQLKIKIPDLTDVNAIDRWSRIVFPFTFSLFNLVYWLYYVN
T1 sequence (Q99928 18-467): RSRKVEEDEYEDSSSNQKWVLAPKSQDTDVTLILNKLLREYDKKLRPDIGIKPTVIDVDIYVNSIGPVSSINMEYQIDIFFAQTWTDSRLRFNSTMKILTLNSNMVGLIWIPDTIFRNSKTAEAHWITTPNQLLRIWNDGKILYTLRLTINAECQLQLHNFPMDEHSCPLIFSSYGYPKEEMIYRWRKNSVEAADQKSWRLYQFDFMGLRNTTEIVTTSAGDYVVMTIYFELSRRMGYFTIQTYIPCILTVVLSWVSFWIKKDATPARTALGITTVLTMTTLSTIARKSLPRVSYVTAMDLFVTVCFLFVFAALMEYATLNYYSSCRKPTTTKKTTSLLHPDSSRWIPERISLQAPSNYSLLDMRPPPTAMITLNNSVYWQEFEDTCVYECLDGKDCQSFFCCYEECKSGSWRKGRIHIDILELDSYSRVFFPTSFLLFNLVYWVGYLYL
Protocol: In some embodiments, the binding test was directed to a subtype of GABAA receptors, such as GABAA1 receptors (i.e., those containing the α1 subunit), GABAA2 receptors (i.e., those containing the α2 subunit), GABAA3 receptors (i.e., those containing the α3 subunit) and GABAA5 receptors (i.e., those containing the α5 subunit).
• Assay and Wash Buffer: 50 mM Tris-Citrate, 200 mM NaCl, pH 7.8 Compounds at 10 mM in DMSO: Put 75 μl in column 1 of compound plate.
Flumazenil, 10 mM (for NSB)
[^3H]-Flunitrazepam (Cat #NET567): Prepare 10× stock=20 nM, [F} in assay=˜2 nM
1. […] Add 5 ul of 30 uM flumazenil to wells 12 D-E for 50% control wells.
2. Spot 2 μl of compound dilutions into dry plate (Automation Program 3). Manually spot 2 μl 10 mM flumazenil into wells 12 F-H for nonspecific control.
3. Make 1:100 dilution in assay buffer (2 μl into 200 μl) and dispense 25 μl compound into assay plates (Automation Program 4).
4. Dispense 200 μl membranes into assay plate (Automation Program 5).
5. Add 25 μl [^3H]-Flunitrazepam (Automation Program 6). Incubate for 1 hr at 4° C.
6. Collect membranes on a cell harvester onto GF/B filter plates (pre-wet with dH2O and wash 5× 400 μl/well, with cold assay buffer. (First 3 washes are considered hot; last two are cold.)
7. Dry plates for 2-3 hours at RT.
8. Add 40 μl Microscint 40/well (Automation Program 7); seal plates. Count on a TopCount.
Data is analyzed by calculating percent of control, IC50, and Ki in an XLfit template. The following formula is used in the templates: […]

Row | Structure (SMILES) | Ki [nM]
1 | CCCNC(=O)c1nnc2c(-c3cccc(S(C)(=O)=O)c3)cccc2c1N | 10.4
2 | CCCNC(=O)c1nnc2c(-c3cc(OC)ccc3OC)c(Cl)ccc2c1N | 13.9
3 | CCNC(=O)c1nnc2c(-c3cnccc3OC)cccc2c1N | 4.36
4 | CCCNC(=O)c1nnc2c(-c3ccc(OC)c(OC)c3OC)c(F)ccc2c1N | 0.6
5 | CCCNC(=O)c1nnc2c(-c3cccc(F)c3F)cccc2c1N | 0.558
6 | CCCNC(=O)c1nnc2c(-c3ccc(C)cc3)cccc2c1N | 29
7 | CCCNC(=O)c1nnc2c(-c3cc(F)cc(F)c3OC)c(F)ccc2c1N | 5.78
8 | CCCNC(=O)c1nnc2c(-c3cccc(OC)c3F)c(F)ccc2c1N | 0.941
9 | CCCNC(=O)c1nnc2c(-c3cnc(OC)nc3)cccc2c1N | 19.5
10 | COc1ccc(C)cc1-c1cccc2c(N)c(C(=O)NC3CC3)nnc12 | 15.2
11 | CCCNC(=O)c1nnc2c(-c3cccc(F)c3OC)cccc2c1N | 10.9
12 | CNC(=O)c1nnc2c(-c3cnc(OC)nc3OC)cccc2c1N | 514
13 | CCCNC(=O)c1nnc2c(-c3cnc(OC)nc3OC)c(Cl)ccc2c1N | 2.73
14 | CCCNC(=O)c1nnc2c(-c3c(OC)cccc3OC)cccc2c1N | 624
15 | CCCNC(=O)c1nnc2c(-c3cc(F)ccc3C)c(F)ccc2c1N | 0.735
16 | CCNC(=O)c1nnc2c(-c3cnc(OC)c(F)c3)cccc2c1N | 9
17 | COc1cccc(F)c1-c1cccc2c(N)c(C(=O)NC3CC3)nnc12 | 0.698
18 | CCCNC(=O)c1nnc2c(-c3ccc4ccccc4c3)cccc2c1N | 43.3
19 | COc1ccc(-c2cccc3c(N)c(C(=O)NC4CC4)nnc23)c(OC)c1 | 2.07
20 | CCCNC(=O)c1nnc2c(-c3cc(C(F)(F)F)cc(C(F)(F)F)c3)cccc2c1N | 356
21 | CCCNC(=O)c1nnc2c(-c3ccccc3C(F)(F)F)cccc2c1N | 0.364
22 | CCCNC(=O)c1nnc2c(-c3cnc4ccccc4c3)cccc2c1N | 12.3
23 | CCCNC(=O)c1nnc2c(-c3ccc(OC)cc3OC)c(C#N)ccc2c1N | 2.69
24 | CCCNC(=O)c1nnc2c(-c3cc(OC)c(OC)c(OC)c3)cccc2c1N | 56.5
25 | CCCNC(=O)c1nnc2c(-c3cc(C)ccc3OC)c(Cl)ccc2c1N | 2.89
26 | COc1ccc(-c2cccc3c(N)c(C(=O)NC4CCC4)nnc23)c(OC)c1 | 0.927
27 | CCCNC(=O)c1nnc2c(-c3cncc(OC)c3)cccc2c1N | 4.21

Row | Structure (SMILES) | Ki [nM]
28 | CCCNC(=O)c1nnc2c(-c3ccc(OC)nc3OC)cccc2c1N | 0.56
29 | CCCNC(=O)c1nnc2c(-c3ccc(C)nc3)cccc2c1N | 4.11
30 | CCCNC(=O)c1nnc2c(-c3ccc(OC)cc3)cccc2c1N | 15.4
31 | CCCNC(=O)c1nnc2c(-c3ccc(Cl)cc3)cccc2c1N | 37.2
32 | CCCNC(=O)c1nnc2c(-c3cc(C)ccc3OC)c(F)ccc2c1N | 0.937
33 | CCNC(=O)c1nnc2c(-c3ccc(OC)cc3OC)cccc2c1N | 4.54
34 | CCCNC(=O)c1nnc2c(-c3ccsc3)cccc2c1N | 18.6
35 | CCCNC(=O)c1nnc2c(-c3cc(F)ccc3F)c(F)ccc2c1N | 45.8
36 | CCCNC(=O)c1nnc2c(-c3cc(C(=O)N4CCC4)ccc3OC)cccc2c1N | 18.4
37 | CCCNC(=O)c1nnc2c(-c3ccc(OC)cc3C(F)(F)F)cccc2c1N | 2.42
38 | CCCNC(=O)c1nnc2c(-c3ccc(C)nc3F)cccc2c1N | 1.67
39 | CCCNC(=O)c1nnc2c(-c3ccc(OC)c(C)c3)cccc2c1N | 17.6
40 | CCCNC(=O)c1nnc2c(-c3cc(F)c(OC)cc3F)cccc2c1N | 1.49
41 | CCCNC(=O)c1nnc2c(-c3cc(OC)ccc3F)cccc2c1N | 1.73
42 | COc1ccc(-c2cccc3c(N)c(C(=O)NC4CC4)nnc23)c(OC)n1 | 1
43 | CCCNC(=O)c1nnc2c(-c3cccc(C#N)c3)cccc2c1N | 1.18
44 | CCCNC(=O)c1nnc2c(-c3nc(Br)ccc3OC)cccc2c1N | 7.51
45 | CCCNC(=O)c1nnc2c(-c3cccc(Cl)c3Cl)cccc2c1N | 1.82
46 | CCCNC(=O)c1nnc2c(-c3cncc(C(=O)N4CCC4)c3)cccc2c1N | 2.34
47 | CCCNC(=O)c1nnc2c(-c3ccccc3)c(F)ccc2c1N | 1
48 | CCCNC(=O)c1nnc2c(-c3cc(F)ccc3OC)cccc2c1N | 10.5
49 | CCCNC(=O)c1nnc2c(-c3ccc(OC)cc3C(F)(F)F)c(F)ccc2c1N | 0.624
50 | CCCNC(=O)c1nnc2c(-c3cc(C)ccc3C)c(F)ccc2c1N | 1.31
51 | CCCNC(=O)c1nnc2c(-c3cc(Cl)ccc3OC)cccc2c1N | 1.11
52 | CCCNC(=O)c1nnc2c(-c3cc(F)ccc3F)cccc2c1N | 0.996
53 | CCCNC(=O)c1nnc2c(-c3cccc(C(=O)O)c3)cccc2c1N | 53.8
54 | CCCNC(=O)c1nnc2c(-c3ccc(OC)cc3OC)cccc2c1N | 2.5

Row | Structure (SMILES) | Ki [nM]
55 | CCCCNC(=O)c1nnc2c(-c3cnccc3OC)cccc2c1N | 1.84
56 | CCCNC(=O)c1nnc2c(-c3cc(F)ccc3C)cccc2c1N | 5.56
57 | CCCNC(=O)c1nnc2c(-c3ccc(C)c(C)c3)cccc2c1N | 16.8
58 | CCNC(=O)c1nnc2c(-c3cnc(OC)nc3OC)cccc2c1N | 14.4
59 | CCCNC(=O)c1nnc2c(-c3ccncc3)cccc2c1N | 1.67
60 | CCCNC(=O)c1nnc2c(-c3cccc(C(=O)N4CCC4)c3)cccc2c1N | 3.44
61 | CCCNC(=O)c1nnc2c(-c3ccc(F)cc3OC)c(F)ccc2c1N | 0.565
62 | CCCNC(=O)c1nnc2c(-c3cnccn3)cccc2c1N | 20.4
63 | CCCNC(=O)c1nnc2c(-c3ccc(F)cc3)cccc2c1N | 9.58
64 | CCCNC(=O)c1nnc2c(-c3ccccn3)cccc2c1N | 19.4
65 | CCCNC(=O)c1nnc2c(-c3cccc(OC)c3)cccc2c1N | 4.34
66 | CCCNC(=O)c1nnc2c(-c3ccc(OC)cc3OC)c(Cl)ccc2c1N | 5.71
67 | CCCNC(=O)c1nnc2c(-c3ccccc3)c(Cl)ccc2c1N | 5.82
68 | CCCNC(=O)c1nnc2c(-c3c(F)cccc3OC)c(F)ccc2c1N | 0.341
69 | CCCNC(=O)c1nnc2c(-c3cccnc3)cccc2c1N | 2.6
70 | CCCNC(=O)c1nnc2c(-c3cccc(OC)c3F)cccc2c1N | 3.41
71 | CCCNC(=O)c1nnc2c(-c3ccc4[nH]ccc4c3)cccc2c1N | 35
72 | CCCNC(=O)c1nnc2c(-c3cccc(Cl)c3)cccc2c1N | 12.3
73 | CCCNC(=O)c1nnc2c(-c3ccc(OC)c(F)c3)cccc2c1N | 20.2
74 | COc1ncccc1-c1cccc2c(N)c(C(=O)NC3CC3)nnc12 | 0.501
75 | CCNC(=O)c1nnc2c(-c3cc(C)ccc3OC)cccc2c1N | 10.5
76 | Nc1c(C(=O)NCC2CC2)nnc2c(-c3ccccc3)cccc12 | 18.6
77 | CCCNC(=O)c1nnc2c(-c3ccc(OC)cc3F)cccc2c1N | 4.17
78 | CCCNC(=O)c1nnc2c(-c3cc(C(F)(F)F)ccc3Cl)cccc2c1N | 1.36
79 | CCCNC(=O)c1nnc2c(-c3cc(Cl)ccc3Cl)cccc2c1N | 0.71
80 | CCCNC(=O)c1nnc2c(-c3cnc(OC)c(Cl)c3)cccc2c1N | 25.4
